From doi:10.1101/2020.06.11.145995v1 (biorxiv, 2020)
Where two headings read alike, the source gives them in different places. Each block holds one compound with its values, some of them ahead of it.

Columns and labels:
Assay in all cases: biochemical
[1] = biological target: MAP4K3 (Homo sapiens, UniProt Q8IVH8)
[2] = biological target: LRRK2(G2019S) (Homo sapiens, UniProt Q5S007, G2019S)
[3] = biological target: ACVR2A (Homo sapiens, UniProt P27037)
[4] = biological target: DAPK3 (Homo sapiens, UniProt O43293)
[5] = biological target: FGFR1 (Homo sapiens, UniProt P11362)
[6] = biological target: ADCK4 (Homo sapiens, UniProt Q96D53)
[7] = biological target: CDC2L5 (Homo sapiens, UniProt Q14004)
[8] = biological target: MST4 (Homo sapiens, UniProt Q9P289)
[9] = biological target: FLT3(R834Q) (Homo sapiens, UniProt P36888, R834Q)
[10] = biological target: ACVR1B (Homo sapiens, UniProt P36896)
[11] = biological target: KIT (Homo sapiens, UniProt P10721)
[12] = biological target: BMPR2 (Homo sapiens, UniProt Q13873)
[13] = biological target: FRK (Homo sapiens, UniProt P42685)
[14] = biological target: AMPK-alpha1 (Homo sapiens, UniProt Q13131)
[15] = biological target: IGF1R (Homo sapiens, UniProt P08069)
[16] = biological target: CAMK4 (Homo sapiens, UniProt Q16566)
[17] = biological target: MLK2 (Homo sapiens, UniProt Q02779)
[18] = biological target: FLT3(D835H) (Homo sapiens, UniProt P36888, D835H)
[19] = biological target: KIT(L576P) (Homo sapiens, UniProt P10721, L576P)
[20] = biological target: FGFR3(G697C) (Homo sapiens, UniProt P22607, G697C)
[21] = biological target: MAP3K2 (Homo sapiens, UniProt Q9Y2U5)
[22] = biological target: JNK1 (Homo sapiens, UniProt P45983)
[23] = biological target: FER (Homo sapiens, UniProt P16591)
[24] = biological target: CSNK1D (Homo sapiens, UniProt P48730)
[25] = biological target: CDK4-cyclinD1 (Homo sapiens, UniProt P11802)
[26] = biological target: BMX (Homo sapiens, UniProt P51813)
[27] = biological target: AURKC (Homo sapiens, UniProt Q9UQB9)
[28] = biological target: CDC2L2 (Homo sapiens, UniProt Q9UQ88)
[29] = biological target: FLT3(N841I) (Homo sapiens, UniProt P36888, N841I)
[30] = read-out: CPT-1-70-1 (1uM) % control
[31] = read-out: HYJ-2-002-1 (1uM) % control

Sequence of CAMK4 (Q16566 whole entry): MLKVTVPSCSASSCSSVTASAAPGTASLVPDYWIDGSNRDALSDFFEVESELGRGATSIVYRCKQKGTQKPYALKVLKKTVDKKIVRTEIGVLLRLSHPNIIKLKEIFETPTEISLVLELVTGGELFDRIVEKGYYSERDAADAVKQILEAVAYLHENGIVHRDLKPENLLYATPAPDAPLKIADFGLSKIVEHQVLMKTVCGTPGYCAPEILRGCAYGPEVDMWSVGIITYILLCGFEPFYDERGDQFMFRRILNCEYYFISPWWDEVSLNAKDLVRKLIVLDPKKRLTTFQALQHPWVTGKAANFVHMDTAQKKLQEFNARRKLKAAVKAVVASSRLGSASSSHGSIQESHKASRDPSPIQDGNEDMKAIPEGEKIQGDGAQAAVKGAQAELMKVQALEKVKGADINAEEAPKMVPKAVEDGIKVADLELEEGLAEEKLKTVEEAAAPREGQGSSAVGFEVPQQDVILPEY
Sequence of BMPR2 (Q13873 whole entry): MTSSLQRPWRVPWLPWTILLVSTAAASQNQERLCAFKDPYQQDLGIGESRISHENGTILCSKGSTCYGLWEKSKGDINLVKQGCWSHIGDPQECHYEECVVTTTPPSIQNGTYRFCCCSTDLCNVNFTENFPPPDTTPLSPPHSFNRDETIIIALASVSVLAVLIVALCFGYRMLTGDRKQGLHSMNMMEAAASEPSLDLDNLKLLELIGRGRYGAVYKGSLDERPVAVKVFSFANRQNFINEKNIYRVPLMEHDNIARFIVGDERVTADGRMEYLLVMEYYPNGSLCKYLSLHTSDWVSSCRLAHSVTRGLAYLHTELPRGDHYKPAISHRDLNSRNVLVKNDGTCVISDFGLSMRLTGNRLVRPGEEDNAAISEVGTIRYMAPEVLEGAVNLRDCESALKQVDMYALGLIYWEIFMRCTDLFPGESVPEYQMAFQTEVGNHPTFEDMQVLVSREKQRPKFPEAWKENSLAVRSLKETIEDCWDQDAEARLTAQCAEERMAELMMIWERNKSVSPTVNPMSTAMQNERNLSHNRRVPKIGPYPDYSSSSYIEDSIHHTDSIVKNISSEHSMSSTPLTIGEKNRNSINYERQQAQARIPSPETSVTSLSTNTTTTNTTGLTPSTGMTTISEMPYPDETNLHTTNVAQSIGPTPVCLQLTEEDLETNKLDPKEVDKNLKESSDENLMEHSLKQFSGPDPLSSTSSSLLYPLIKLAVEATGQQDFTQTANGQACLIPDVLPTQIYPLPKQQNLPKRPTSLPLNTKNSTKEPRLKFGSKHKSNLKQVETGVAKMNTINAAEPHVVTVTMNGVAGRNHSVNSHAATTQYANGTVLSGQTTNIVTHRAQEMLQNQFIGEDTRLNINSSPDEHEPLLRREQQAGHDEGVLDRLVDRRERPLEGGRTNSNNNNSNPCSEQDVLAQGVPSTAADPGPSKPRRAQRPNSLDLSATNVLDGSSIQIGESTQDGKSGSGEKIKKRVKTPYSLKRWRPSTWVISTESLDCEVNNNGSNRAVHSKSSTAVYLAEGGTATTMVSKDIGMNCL
Sequence of CDC2L5 (Q14004 whole entry): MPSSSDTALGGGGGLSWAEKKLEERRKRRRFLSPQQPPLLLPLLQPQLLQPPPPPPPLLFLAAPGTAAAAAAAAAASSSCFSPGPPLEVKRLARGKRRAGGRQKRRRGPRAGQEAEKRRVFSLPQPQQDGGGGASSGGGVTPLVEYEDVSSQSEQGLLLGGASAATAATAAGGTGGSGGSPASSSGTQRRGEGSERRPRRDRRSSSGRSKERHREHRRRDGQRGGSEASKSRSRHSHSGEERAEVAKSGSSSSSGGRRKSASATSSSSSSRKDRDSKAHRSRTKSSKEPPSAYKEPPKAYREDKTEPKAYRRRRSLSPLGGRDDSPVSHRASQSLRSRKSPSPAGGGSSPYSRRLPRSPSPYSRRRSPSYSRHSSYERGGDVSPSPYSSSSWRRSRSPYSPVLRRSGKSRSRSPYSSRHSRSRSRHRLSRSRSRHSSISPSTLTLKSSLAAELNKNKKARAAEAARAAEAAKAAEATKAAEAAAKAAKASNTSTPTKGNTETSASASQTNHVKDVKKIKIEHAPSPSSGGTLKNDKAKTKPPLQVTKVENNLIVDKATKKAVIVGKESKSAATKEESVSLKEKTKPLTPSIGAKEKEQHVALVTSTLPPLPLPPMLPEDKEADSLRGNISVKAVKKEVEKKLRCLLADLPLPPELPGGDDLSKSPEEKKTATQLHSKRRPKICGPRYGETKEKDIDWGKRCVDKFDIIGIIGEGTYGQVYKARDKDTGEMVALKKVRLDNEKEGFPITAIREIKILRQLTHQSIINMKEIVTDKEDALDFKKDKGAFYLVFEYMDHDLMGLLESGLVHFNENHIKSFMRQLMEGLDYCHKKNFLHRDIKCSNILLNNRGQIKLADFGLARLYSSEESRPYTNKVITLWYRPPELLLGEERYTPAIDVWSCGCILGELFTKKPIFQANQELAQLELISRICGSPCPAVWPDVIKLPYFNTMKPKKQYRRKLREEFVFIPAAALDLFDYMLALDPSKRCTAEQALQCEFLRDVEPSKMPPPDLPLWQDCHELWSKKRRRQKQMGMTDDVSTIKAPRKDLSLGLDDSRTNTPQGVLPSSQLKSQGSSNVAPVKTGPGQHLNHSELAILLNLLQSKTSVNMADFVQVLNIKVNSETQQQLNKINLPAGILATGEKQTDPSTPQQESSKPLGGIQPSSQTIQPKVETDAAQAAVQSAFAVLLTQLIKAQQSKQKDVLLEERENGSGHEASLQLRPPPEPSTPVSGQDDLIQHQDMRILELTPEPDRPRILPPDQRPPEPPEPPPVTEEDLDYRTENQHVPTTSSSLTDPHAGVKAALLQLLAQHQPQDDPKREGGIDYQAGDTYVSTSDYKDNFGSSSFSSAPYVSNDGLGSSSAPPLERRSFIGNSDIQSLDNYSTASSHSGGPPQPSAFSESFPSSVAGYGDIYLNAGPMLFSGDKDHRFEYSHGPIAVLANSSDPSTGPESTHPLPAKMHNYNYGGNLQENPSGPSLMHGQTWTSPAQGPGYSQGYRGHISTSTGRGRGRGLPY
Sequence of FGFR1 (P11362 whole entry): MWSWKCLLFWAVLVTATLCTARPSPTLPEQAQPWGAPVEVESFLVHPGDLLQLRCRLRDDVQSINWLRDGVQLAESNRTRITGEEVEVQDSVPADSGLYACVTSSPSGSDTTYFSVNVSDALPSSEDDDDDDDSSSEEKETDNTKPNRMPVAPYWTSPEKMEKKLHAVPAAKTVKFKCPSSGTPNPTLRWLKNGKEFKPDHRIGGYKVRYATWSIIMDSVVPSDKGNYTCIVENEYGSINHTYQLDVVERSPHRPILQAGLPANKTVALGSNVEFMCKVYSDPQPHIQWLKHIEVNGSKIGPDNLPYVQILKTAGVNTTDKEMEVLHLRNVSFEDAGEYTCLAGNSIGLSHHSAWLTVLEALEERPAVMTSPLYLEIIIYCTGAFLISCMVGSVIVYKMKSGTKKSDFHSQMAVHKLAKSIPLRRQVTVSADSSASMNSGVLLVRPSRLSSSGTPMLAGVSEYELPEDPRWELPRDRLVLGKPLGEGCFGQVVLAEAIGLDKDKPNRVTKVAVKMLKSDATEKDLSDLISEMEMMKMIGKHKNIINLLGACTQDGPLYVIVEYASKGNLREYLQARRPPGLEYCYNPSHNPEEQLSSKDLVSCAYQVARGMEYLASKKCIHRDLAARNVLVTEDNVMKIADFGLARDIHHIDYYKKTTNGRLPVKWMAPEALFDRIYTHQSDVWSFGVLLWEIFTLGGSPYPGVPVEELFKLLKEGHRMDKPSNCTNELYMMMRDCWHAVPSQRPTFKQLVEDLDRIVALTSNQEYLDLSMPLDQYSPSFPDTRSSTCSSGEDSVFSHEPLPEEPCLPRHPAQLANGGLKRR
Sequence of BMX (P51813 whole entry): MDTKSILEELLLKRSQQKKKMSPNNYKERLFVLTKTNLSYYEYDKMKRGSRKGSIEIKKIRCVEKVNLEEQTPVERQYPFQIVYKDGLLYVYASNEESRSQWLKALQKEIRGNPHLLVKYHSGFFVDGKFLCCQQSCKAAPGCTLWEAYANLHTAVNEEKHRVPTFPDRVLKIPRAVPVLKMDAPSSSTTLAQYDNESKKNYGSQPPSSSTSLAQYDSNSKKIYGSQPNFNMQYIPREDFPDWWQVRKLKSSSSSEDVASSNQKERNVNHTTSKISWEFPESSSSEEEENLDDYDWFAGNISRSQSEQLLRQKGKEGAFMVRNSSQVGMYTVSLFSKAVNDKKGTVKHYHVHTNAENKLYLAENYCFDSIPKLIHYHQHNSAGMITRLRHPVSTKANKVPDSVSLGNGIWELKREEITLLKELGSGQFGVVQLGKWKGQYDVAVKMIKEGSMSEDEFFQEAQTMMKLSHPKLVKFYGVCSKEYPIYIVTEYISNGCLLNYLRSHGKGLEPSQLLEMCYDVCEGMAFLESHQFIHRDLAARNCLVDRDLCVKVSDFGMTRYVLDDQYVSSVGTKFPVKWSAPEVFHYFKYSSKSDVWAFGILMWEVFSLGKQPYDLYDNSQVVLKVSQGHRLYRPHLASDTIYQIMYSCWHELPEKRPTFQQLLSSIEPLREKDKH
Sequence of AURKC (Q9UQB9 whole entry): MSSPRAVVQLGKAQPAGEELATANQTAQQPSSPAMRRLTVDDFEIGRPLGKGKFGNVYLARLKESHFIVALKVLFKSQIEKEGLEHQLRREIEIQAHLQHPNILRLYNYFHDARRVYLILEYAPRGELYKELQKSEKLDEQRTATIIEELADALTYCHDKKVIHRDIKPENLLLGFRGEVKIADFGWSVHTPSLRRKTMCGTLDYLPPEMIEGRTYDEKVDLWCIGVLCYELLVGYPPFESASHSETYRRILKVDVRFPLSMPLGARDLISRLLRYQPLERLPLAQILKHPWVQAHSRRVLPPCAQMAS

Structure (SMILES): CN1CCN(c2ccc(Nc3nc(Oc4ccc(NC(=O)CCl)cc4)c4cc[nH]c4n3)cc2)CC1 [CPT1-70-1]
remaining activity at 1 µM [1, 30]: 23%
remaining activity at 1 µM [2, 30]: 2.6%
remaining activity at 1 µM [3, 30]: 100%
remaining activity at 1 µM [4, 30]: 59%
remaining activity at 1 µM [5, 30]: 2.2%
remaining activity at 1 µM [6, 30]: 91%
remaining activity at 1 µM [7, 30]: 91%
remaining activity at 1 µM [8, 30]: 49%
remaining activity at 1 µM [9, 30]: 51%
remaining activity at 1 µM [10, 30]: 100%
remaining activity at 1 µM [11, 30]: 20%
remaining activity at 1 µM [12, 30]: 100%
remaining activity at 1 µM [13, 30]: 100%
remaining activity at 1 µM [14, 30]: 32%
remaining activity at 1 µM [15, 30]: 62%
remaining activity at 1 µM [16, 30]: 100%
remaining activity at 1 µM [17, 30]: 56%
remaining activity at 1 µM [18, 30]: 10%
remaining activity at 1 µM [19, 30]: 8.9%
remaining activity at 1 µM [20, 30]: 34%
remaining activity at 1 µM [21, 30]: 37%
remaining activity at 1 µM [22, 30]: 2.4%
remaining activity at 1 µM [23, 30]: 45%
remaining activity at 1 µM [24, 30]: 43%
remaining activity at 1 µM [25, 30]: 81%
remaining activity at 1 µM [26, 30]: 9.2%
remaining activity at 1 µM [27, 30]: 51%
remaining activity at 1 µM [28, 30]: 100%
remaining activity at 1 µM [29, 30]: 1.2%

remaining activity at 1 µM [1, 31]: 40%
remaining activity at 1 µM [2, 31]: 83%
remaining activity at 1 µM [3, 31]: 100%
remaining activity at 1 µM [4, 31]: 100%
remaining activity at 1 µM [5, 31]: 1.2%
remaining activity at 1 µM [6, 31]: 100%
remaining activity at 1 µM [7, 31]: 100%
remaining activity at 1 µM [8, 31]: 98%
remaining activity at 1 µM [9, 31]: 44%
remaining activity at 1 µM [10, 31]: 100%
remaining activity at 1 µM [11, 31]: 0%
remaining activity at 1 µM [12, 31]: 98%
remaining activity at 1 µM [13, 31]: 1.4%
remaining activity at 1 µM [14, 31]: 87%
remaining activity at 1 µM [15, 31]: 100%
remaining activity at 1 µM [16, 31]: 100%
remaining activity at 1 µM [17, 31]: 93%
remaining activity at 1 µM [18, 31]: 7.3%
remaining activity at 1 µM [19, 31]: 82%
remaining activity at 1 µM [20, 31]: 29%
remaining activity at 1 µM [21, 31]: 26%
remaining activity at 1 µM [22, 31]: 72%
remaining activity at 1 µM [23, 31]: 56%
remaining activity at 1 µM [24, 31]: 73%
remaining activity at 1 µM [25, 31]: 80%
remaining activity at 1 µM [26, 31]: 8.7%
remaining activity at 1 µM [27, 31]: 80%
remaining activity at 1 µM [28, 31]: 76%
remaining activity at 1 µM [29, 31]: 1.5%
Structure (SMILES): CCN1CCN(Cc2ccc(NC(=O)c3ccc(C)c(CCc4cnc5[nH]ccc5c4OC)c3)cc2C(F)(F)F)CC1 [HYJ-2-002-1]
